Molecular target: T1, human oxytocin receptor (Homo sapiens, UniProt P30559)
T1 construct: host or cells: CHO cells, stably transfected (pcDNA3.1 vector)
T1 sequence (P30559 1-389): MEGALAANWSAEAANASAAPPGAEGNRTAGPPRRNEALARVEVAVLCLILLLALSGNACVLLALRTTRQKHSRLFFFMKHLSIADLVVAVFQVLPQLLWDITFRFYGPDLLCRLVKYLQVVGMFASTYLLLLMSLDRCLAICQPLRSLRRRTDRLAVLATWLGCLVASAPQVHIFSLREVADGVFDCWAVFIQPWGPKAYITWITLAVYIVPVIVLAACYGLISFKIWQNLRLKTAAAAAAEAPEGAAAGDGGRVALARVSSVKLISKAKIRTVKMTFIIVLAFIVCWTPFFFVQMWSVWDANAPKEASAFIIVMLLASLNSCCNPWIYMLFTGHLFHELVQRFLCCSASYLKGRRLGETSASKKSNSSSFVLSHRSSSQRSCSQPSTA
Assay: Oxytocin binding in CHO cell membranes expressing human oxytocin receptors ([3H]oxytocin radioligand binding)
Conditions: 100 nM; for inhibition at 0.1 µM: read-out: OT % inhibition @ 100 nM
Experimental: Oxytocin Binding in Chinese Hamster Ovary Cell Membranes Expressing Human Oxytocin Receptors
Cell Culture medium (e.g. 30 mL for 1:30 split) is immediately added and mixed well to inactivate trypsin. 1 mL of detached cells is added to new culture flasks containing fresh Cell Culture medium (e.g. into 25 mL per T-150 flask), and mixed gently. The cells are incubated at 37° C. in 5% CO2. The medium is changed at 3 to 4 days interval (or as appropriate). […] All steps are done under sterile conditions.
The cells are washed twice gently with Hank's Balanced Salt solution (e.g., use 10 mL per T-150 flask). […] The contents are transferred to centrifuge tubes (50 mL size) kept in ice bath. All subsequent steps are done at 4° C. The tubes are centrifuged at 300×g for 15 min (1380 rpm on SORVAL, Model RT6000D, using rotor for 50 mL tubes). The supernatant is discarded and the cells suspended in homogenizing buffer (10 mM Tris-HCl containing 0.25 M sucrose and 1 mM EDTA, pH 7.4) ensuring that the volume of the buffer is about ten times the volume of the cell pellet. The cells are pooled into a centrifuge tube (50 mL) and homogenized with a Polytron at setting 6 for 10 sec. The homogenate is transferred into a Potter-Elvjehm homogenizer and homogenized with 3 strokes. The homogenate is centrifuged at 1500×g for 10 min at 4° C. (3100 rpm using SORVAL, model RT6000D, using a rotor for 50 mL tubes). The pellet is discarded. The supernatant is centrifuged at 100,000×g for 60 min. at 4° C. (Beckman L8-80M ultracentrifuge; spin at 37,500 rpm with rotor type 70 Ti for 50 mL tubes; 38,000 rpm with rotor type 8OTi for 15 mL tubes; or 35,800 rpm with rotor type 45Ti). The supernantant is discarded and the pellet suspended in 3 to 4 mL of Tris buffer (50 mM TRIS-HCl, pH 7.4). The protein content is estimated by the Bradford or Lowry method. The volume of the membrane suspension is adjusted with the membrane buffer (50 mM Tris-HCl containing 0.1% BSA and 0.1 mM PMSF) to give 3.0 mg/mL (or as appropriate) of protein. The membranes are aliquoted and stored at −70° C.
In wells of a 96-well format microtiter plate, is added 90, 110 or 130 μL (to make up a final volume of 200 μL) of assay buffer containing 50 mM of Tris-HCl (pH 7.4), […], 1 mg % aprotinin, 1 mg % leupeptin, 2 mg % 1,10-phenanthroline, 10 mg % trypsin inhibitor, and 0.1 mM PMSF. The inhibitors are added on the day of the experiment. The components are mixed at room temperature, and then kept in ice bath following adjustment of the pH to 7.4. […] For oxytocin and other peptide ligands, 20 μL of 50% DMSO is added and the assay buffer volume is adjusted accordingly. To each well is added 50 μL of frozen membrane suspension thawed immediately prior to use and diluted in assay buffer to the required concentration (equivalent to 25 to 50 μg of protein/well as needed). 20 μL of 8 nM [^3H]oxytocin in the assay buffer, prepared just before use is added and incubated at room temperature for 60 min. shaking the plate on a mechanical shaker for the first 15 min. The incubation is stopped by rapid filtration of the plate contents followed by washing with ice-cold buffer (50 mM Tris-HCl, pH 7.4) using a cell harvester (Tomtek and Printed filtermat-B filter paper). The filter paper is thoroughly dried (7–12 min. in a microwave oven) and impregnated with MeltiLex B/H melt-on scintillation wax sheets and the radioactivity counted in a betaplate scintillation counter.
Binding data is either reported as percent inhibition at a certain concentration or if an IC50 was calculated, as a nanomolar concentration.

| SMILES | inhibition at 0.1 µM [%] | OT % inhibition @ 100 nM [%] |
| --- | --- | --- |
| O=C(NCc1ccccn1)c1ccc2n1Cc1ccccc1N(C(=O)c1ccc(-c3cccc4ccccc34)cc1Cl)C2 [Example 34, 10-[2-Chloro-4-(naphthalen-1-yl)benzoyl]-N-(2-pyridinylmethyl)-10,11-dihydro-5H-pyrrolo[2,1-c][1,4]benzodiazepine-3-carboxamide] | 5 | – |
| Cc1ccccc1-c1ccc(C(=O)N2Cc3ccc(C(=O)NCc4cccnc4)n3Cc3ccccc32)cc1 [Example 40, 10-[(2′-Methyl-[1,1′-biphenyl]-4-yl)carbonyl]-N-(3-pyridinylmethyl)-10,11-dihydro-5H-pyrrolo[2,1-c][1,4]benzodiazepine-3-carboxamide] | 17 | – |
| COc1cccc(-c2ccc(C(=O)N3Cc4ccc(C(=O)NCc5ccccn5)n4Cc4ccccc43)cc2OC)c1 [Example 33, 10-[(2,3′-Dimethoxy-[1,1′-biphenyl]-4-yl)carbonyl]-N-(2-pyridinylmethyl)-10,11-dihydro-5H-pyrrolo[2,1-c][1,4]benzodiazepine-3-carboxamide] | 42 | – |
| COc1ccccc1-c1ccc(C(=O)N2Cc3ccc(C(=O)N(C)CCc4ccccn4)n3Cc3ccccc32)cc1OC [Example 64, 10-[(2,2′-Dimethoxy-[1,1′-biphenyl]-4-yl)carbonyl]-N-methyl-N-[2-(2-pyridinyl)ethyl]-10,11-dihydro-5H-pyrrolo[2,1-c][1,4]benzodiazepine-3-carboxamide] | 91 | – |
| COc1cccc(-c2ccc(C(=O)N3Cc4ccc(C(=O)NCc5cccnc5)n4Cc4ccccc43)cc2C)c1 [Example 38, 10-[(3′-Methoxy-2-methyl-[1,1′-biphenyl]-4-yl)carbonyl]-N-(3-pyridinylmethyl)-10,11-dihydro-5H-pyrrolo[2,1-c][1,4]benzodiazepine-3-carboxamide] | 26 | – |
| COc1cccc(-c2cc(OC)c(C(=O)N3Cc4ccc(C(=O)NCc5ccccn5)n4Cc4ccccc43)cc2Cl)c1 [Example 30, 10-[(6-Chloro-3,3′-dimethoxy-[1,1′-biphenyl]-4-yl)carbonyl]-N-(2-pyridinylmethyl)-10,11-dihydro-5H-pyrrolo[2,1-c][1,4]benzodiazepine-3-carboxamide] | 25 | – |
| COc1cc(-c2ccccc2C)c(Cl)cc1C(=O)N1Cc2ccc(C(=O)NCCc3ccccn3)n2Cc2ccccc21 [Example 55, 10-[(6-Chloro-3-methoxy-2′-methyl-[1,1′-biphenyl]-4-yl)carbonyl]-N-[2-(2-pyridinyl)ethyl]-10,11-dihydro-5H-pyrrolo[2,1-c][1,4]benzodiazepine-3-carboxamide] | 50 | – |
| COc1ccccc1-c1ccc(C(=O)N2Cc3ccc(C(=O)NCc4ccccn4)n3Cc3ccccc32)cc1OC [Example 32, 10-[(2,2′-Dimethoxy-[1,1′-biphenyl]-4-yl)carbonyl]-N-(2-pyridinylmethyl)-10,11-dihydro-5H-pyrrolo[2,1-c][1,4]benzodiazepine-3-carboxamide] | 47 | – |
| Cc1ccccc1-c1ccc(C(=O)N2Cc3ccc(C(=O)NCc4ccccn4)n3Cc3ccccc32)cc1 [Example 27, 10-[(2′-Methyl-[1,1′-biphenyl]-4-yl)carbonyl]-N-(2-pyridinylmethyl)-10,11-dihydro-5H-pyrrolo[2,1-c][1,4]benzodiazepine-3-carboxamide] | 22 | – |
| COc1cc(C(=O)N2Cc3ccc(C(=O)N4CCN(c5ccccn5)CC4)n3Cc3ccccc32)ccc1-c1cccc2ccccc12 [Example 83] | – | 30 |

Results, then the molecule that gave them:

| inhibition at 0.1 µM [%] | OT % inhibition @ 100 nM [%] | SMILES |
| --- | --- | --- |
| 94 | – | Cc1ccccc1-c1ccc(C(=O)N2Cc3ccc(C(=O)N4CCN(c5ccncc5)CC4)n3Cc3ccccc32)cc1C [Example 114, {10-[(2,2′-Dimethyl-[1,1′-biphenyl]-4-yl)carbonyl]-10,11-dihydro-5H-pyrrolo[2,1-c][1,4]benzodiazepin-3-yl}[4-(4-pyridinyl)-1-piperazinyl]methanone] |
| 95 | – | COc1cccc(-c2ccc(C(=O)N3Cc4ccc(C(=O)N5CCN(c6ccncc6)CC5)n4Cc4ccccc43)cc2OC)c1 [Example 123, {10-[(2,3′-Dimethoxy-[1,1′-biphenyl]-4-yl)carbonyl]-10,11-dihydro-5H-pyrrolo[2,1-c][1,4]benzodiazepin-3-yl}[4-(4-pyridinyl)-1-piperazinyl]methanone] |
| 96 | – | COc1ccccc1-c1ccc(C(=O)N2Cc3ccc(C(=O)N4CCCCC4c4cccnc4)n3Cc3ccccc32)cc1 (stereo not shown) [Example 139, {10-[(2′-Methoxy-[1,1′-biphenyl]-4-yl)carbonyl]-10,11-dihydro-5H-pyrrolo[2,1-c][1,4]benzodiazepin-3-yl}[2-(3-pyridinyl)-1-piperidinyl]methanone] |
| 93 | – | COc1ccccc1-c1ccc(C(=O)N2Cc3ccc(C(=O)N(C)CCc4ccncc4)n3Cc3ccccc32)cc1C [Example 126, 10-[(2′-Methoxy-2-methyl-[1,1′-biphenyl]-4-yl)carbonyl]-N-methyl-N-[2-(4-pyridinyl)ethyl]-10,11-dihydro-5H-pyrrolo[2,1-c][1,4]benzodiazepine-3-carboxamide] |
| 44 | – | CN(CCc1ccncc1)C(=O)c1ccc2n1Cc1ccccc1N(C(=O)c1ccc(-c3cccc4ccccc34)cc1Cl)C2 [Example 136, 10-[2-Chloro-4-(naphthalen-1-yl)benzoyl]-N-methyl-N-[2-(4-pyridinyl)ethyl]-10,11-dihydro-5H-pyrrolo[2,1-c][1,4]benzodiazepine-3-carboxamide] |
| 98 | – | COc1ccccc1-c1ccc(C(=O)N2Cc3ccc(C(=O)N(C)CCc4ccncc4)n3Cc3ccccc32)cc1 [Example 129, 10-[(2′-Methoxy-[1,1′-biphenyl]-4-yl)carbonyl]-N-methyl-N-[2-(4-pyridinyl)ethyl]-10,11-dihydro-5H-pyrrolo[2,1-c][1,4]benzodiazepine-3-carboxamide] |
| 99 | – | COc1cc(-c2ccccc2C)c(Cl)cc1C(=O)N1Cc2ccc(C(=O)N(C)CCc3ccncc3)n2Cc2ccccc21 [Example 132, 10-[(6-Chloro-3-methoxy-2′-methyl-[1,1′-biphenyl]-4-yl)carbonyl]-N-methyl-N-[2-(4-pyridinyl)ethyl]-10,11-dihydro-5H-pyrrolo[2,1-c][1,4]benzodiazepine-3-carboxamide] |
| 102 | – | Cc1ccccc1-c1ccc(C(=O)N2Cc3ccc(C(=O)N(C)CCc4ccncc4)n3Cc3ccccc32)cc1C [Example 127, 10-[(2,2′-Dimethyl-[1,1′-biphenyl]-4-yl)carbonyl]-N-methyl-N-[2-(4-pyridinyl)ethyl]-10,11-dihydro-5H-pyrrolo[2,1-c][1,4]benzodiazepine-3-carboxamide] |
| 0 | – | Cc1ccccc1-c1ccc(C(=O)N2Cc3ccc(C(=O)N(C)CCc4ccncc4)n3Cc3ccccc32)cc1 [Example 130, N-Methyl-10-[(2′-methyl-[1,1′-biphenyl]-4-yl)carbonyl]-N-[2-(4-pyridinyl)ethyl]-10,11-dihydro-5H-pyrrolo[2,1-c][1,4]benzodiazepine-3-carboxamide] |
